Data taken from US12622948B2 (SUN PHARMACEUTICAL INDUSTRIES LIMITED, priority 2020, dated 2026).
Marks after values point to notes of the source that are not given here.

Legend:
[1] = tested on: type 2 diabetic mouse (db/db) model; assay: Efficacy study in db/db mice at 10 nM/kg dose (blood glucose, body weight, food intake); format: in vivo
Protocol: The effect of compounds of present invention on blood glucose, food intake and body weight was studied in mice. This study was performed in a type 2 diabetic mouse (db/db) model. […] Baseline blood glucose was measured from all the animals. […] All the animals were administered with test items subcutaneously. […] Delta blood glucose (mM) was calculated.

[2] = tested on: type 2 diabetic mouse (db/db) model; assay: Efficacy study in db/db mice at 3 and 20 nM/kg dose (blood glucose, body weight, food intake); format: in vivo
Protocol: The effect of compounds of present invention on blood glucose, food intake and body weight was studied on mice. This study was performed in type 2 diabetic mouse (db/db) model. […] Baseline blood glucose was measured from all the animals. All animals were administered with test items subcutaneously. […] Delta blood glucose (mM) was calculated. Body weight changes and cumulative food consumption was measured at 72 hr post treatment.

[3] = Study 1, db/db mice, 10 nM/kg s.c.
[4] = Study 1, db/db mice, 10 nM/kg s.c., 48 hr
[5] = Study 1, db/db mice, 10 nM/kg s.c., 96 hr
[6] = Study 2, db/db mice, 10 nM/kg s.c. single dose
[7] = Study 2, db/db mice, 10 nM/kg s.c. single dose, 48 hr
[8] = Study 2, db/db mice, 10 nM/kg s.c. single dose, 96 hr
[9] = db/db mice, 10 nM/kg s.c., vs diabetic control

CCC[C@H](NC(=O)[C@@H](NC(=O)[C@H](CO)NC(=O)[C@H](Cc1ccc(O)cc1)NC(=O)[C@H](CC(=O)O)NC(=O)[C@H](CO)NC(=O)[C@@H](NC(=O)[C@H](Cc1ccccc1)NC(=O)[C@@H](NC(=O)CNC(=O)[C@H](CCC(=O)O)NC(=O)C(C)(C)NC(=O)[C@@H](N)Cc1ccc(O)cc1)[C@@H](C)O)[C@@H](C)O)[C@@H](C)CC)C(=O)N[C@@H](CC(C)C)C(=O)N[C@@H](CC(=O)O)C(=O)N[C@@H](CCCCN)C(=O)N[C@H](C(=O)N[C@@H](C)C(=O)N[C@@H](CCC(N)=O)C(=O)N[C@@H](CCCCNC(=O)COCCOCCNC(=O)C(C)(C)NC(=O)CC[C@H](NC(=O)CCCCCCCCCCCCCCCCCCC(=O)O)C(=O)O)C(=O)N[C@@H](C)C(=O)N[C@@H](Cc1ccccc1)C(=O)N[C@H](C(=O)N[C@@H](CCC(N)=O)C(=O)N[C@@H](Cc1c[nH]c2ccccc12)C(=O)N[C@@H](CC(C)C)C(=O)N[C@H](C(=O)N[C@@H](C)C(=O)NCC(=O)NCC(=O)N1CCC[C@H]1C(=O)N[C@@H](CO)C(=O)N[C@@H](CO)C(=O)NCC(=O)N[C@@H](C)C(=O)N1CCC[C@H]1C(=O)N1CCC[C@H]1C(=O)N1CCC[C@H]1C(=O)N[C@@H](CO)C(N)=O)[C@@H](C)CC)C(C)C)[C@@H](C)CC [Compound 1]
Cumulative food Intake (g) 0-48 hr. vs. Baseline, Mean [1, 3]: 7.5*** g
Cumulative food Intake (g) 0-96 hr. vs. Baseline, Mean [1, 3]: 13.9*** g
Delta Blood Glucose (mM) Mean ([1]; Study 1, db/db mice, 10 nM/kg s.c., 0 hr (baseline)): 0 mM
Delta Blood Glucose (mM) Mean ([1]; Study 1, db/db mice, 10 nM/kg s.c., 4 hr): −12.7*** mM
Delta Blood Glucose (mM) Mean ([1]; Study 1, db/db mice, 10 nM/kg s.c., 8 hr): −12.0*** mM
Delta Blood Glucose (mM) Mean ([1]; Study 1, db/db mice, 10 nM/kg s.c., 12 hr): −10.5*** mM
Delta Blood Glucose (mM) Mean ([1]; Study 1, db/db mice, 10 nM/kg s.c., 24 hr): −15.5*** mM
Body Wt. Change (%) 48 hr. vs. Baseline, Mean [1, 4]: −5.1*** %
Delta Blood Glucose (mM) Mean [1, 4]: −6.7*** mM
Delta Blood Glucose (mM) Mean ([1]; Study 1, db/db mice, 10 nM/kg s.c., 72 hr): −4.3*** mM
Body Wt. Change (%) 96 hr. vs. Baseline, Mean [1, 5]: −4.2*** %
Delta Blood Glucose (mM) Mean [1, 5]: −2.2*** mM
Cumulative food Intake (g) 0-48 hr. vs. Baseline, Mean [1, 6]: 3.8*** g
Cumulative food Intake (g) 0-96 hr. vs. Baseline, Mean [1, 6]: 12.5*** g
Delta Blood Glucose (mM) Mean ([1]; Study 2, db/db mice, 10 nM/kg s.c. single dose, 0 hr (baseline)): 0 mM
Delta Blood Glucose (mM) Mean ([1]; Study 2, db/db mice, 10 nM/kg s.c. single dose, 4 hr): −10.0*** mM
Delta Blood Glucose (mM) Mean ([1]; Study 2, db/db mice, 10 nM/kg s.c. single dose, 8 hr): −13.5*** mM
Delta Blood Glucose (mM) Mean ([1]; Study 2, db/db mice, 10 nM/kg s.c. single dose, 12 hr): −12.3*** mM
Delta Blood Glucose (mM) Mean ([1]; Study 2, db/db mice, 10 nM/kg s.c. single dose, 24 hr): −11.5*** mM
Body Wt. Change (%) 48 hr. vs. Baseline, Mean [1, 7]: −5.1*** %
Delta Blood Glucose (mM) Mean [1, 7]: −7.9*** mM
Delta Blood Glucose (mM) Mean ([1]; Study 2, db/db mice, 10 nM/kg s.c. single dose, 72 hr): −4.3** mM
Body Wt. Change (%) 96 hr. vs. Baseline, Mean [1, 8]: −3.5*** %
Delta Blood Glucose (mM) Mean [1, 8]: -1.4 mM
effect on blood glucose reduction compared with tirzepatide ([1]; db/db mice, 10 nM/kg s.c., same concentration as tirzepatide): superior to tirzepatide
blood glucose reduction [1, 9]: statistically significant blood glucose reduction upto 96 hr post treatment
body weight reduction [1, 9]: statistically significant body weight reduction which was comparable to tirzepatide
reduction in food consumption [1, 9]: significant reduction in food consumption which was comparable to tirzepatide
glucose lowering effect ([2]; 3 nM/kg and 20 nM/kg s.c.): dose dependent improvement in glucose lowering effect upto 72 hours
glucose lowering effect compared with tirzepatide ([2]; 3 nM/kg and 20 nM/kg s.c.): superior to tirzepatide at similar dosage
Cumulative Food Intake (g), 0-72 hr, Mean ([2]; 3 nM/kg s.c.): 10.2*** g
Delta Blood Glucose (mM) Mean ([2]; 3 nM/kg s.c., 0 hr (baseline)): 0.0 mM
Delta Blood Glucose (mM) Mean ([2]; 3 nM/kg s.c., 4 hr): −8.9*** mM
Delta Blood Glucose (mM) Mean ([2]; 3 nM/kg s.c., 24 hr): −9.9*** mM
Delta Blood Glucose (mM) Mean ([2]; 3 nM/kg s.c., 48 hr): −5.8** mM
Body weight change (%) 72 hr vs. Baseline, Mean ([2]; 3 nM/kg s.c., 72 hr): −4.0*** %
Delta Blood Glucose (mM) Mean ([2]; 3 nM/kg s.c., 72 hr): -3.2 mM
Cumulative Food Intake (g), 0-72 hr, Mean ([2]; 20 nM/kg s.c.): 6.3*** g
Delta Blood Glucose (mM) Mean ([2]; 20 nM/kg s.c., 0 hr (baseline)): 0.0 mM
Delta Blood Glucose (mM) Mean ([2]; 20 nM/kg s.c., 4 hr): −13.7*** mM
Delta Blood Glucose (mM) Mean ([2]; 20 nM/kg s.c., 24 hr): −13.6*** mM
Delta Blood Glucose (mM) Mean ([2]; 20 nM/kg s.c., 48 hr): −14.0*** mM
Body weight change (%) 72 hr vs. Baseline, Mean ([2]; 20 nM/kg s.c., 72 hr): −6.2*** %
Delta Blood Glucose (mM) Mean ([2]; 20 nM/kg s.c., 72 hr): −7.9*** mM
effect on body weight ([2]; 3 and 20 nM/kg): significant, dose dependent and comparable to tirzepatide
effect on food intake ([2]; 3 and 20 nM/kg): significant, dose dependent and comparable to tirzepatide

Tirzepatide [reference compound]
Cumulative food Intake (g) 0-48 hr. vs. Baseline, Mean [1, 3]: 4.9*** g
Cumulative food Intake (g) 0-96 hr. vs. Baseline, Mean [1, 3]: 13.0*** g
Body Wt. Change (%) 48 hr. vs. Baseline, Mean [1, 4]: −4.2*** %
Body Wt. Change (%) 96 hr. vs. Baseline, Mean [1, 5]: −2.8*** %
Cumulative Food Intake (g), 0-72 hr, Mean ([2]; 3 nM/kg s.c.): 9.6*** g
Body weight change (%) 72 hr vs. Baseline, Mean ([2]; 3 nM/kg s.c., 72 hr): −3.4*** %
Cumulative Food Intake (g), 0-72 hr, Mean ([2]; 20 nM/kg s.c.): 8.4*** g
Body weight change (%) 72 hr vs. Baseline, Mean ([2]; 20 nM/kg s.c., 72 hr): −4.9*** %
